For this test, the target named is S-adenosylmethionine synthase isoform type-2 (Homo sapiens, UniProt P31153). Description: Allosteric inhibition of MAT2A (unknown origin) expressed in Escherichia coli BL21(DE3) assessed as reduction in S-adenosyl-methionine formation using methionine as substrate in presence of ATP by ELISA. Background: In an ELISA, binding on a coated surface is turned into a signal by an enzyme label.

From ChEMBL document CHEMBL4715850, “Exploiting binding-site arginines in drug design: Recent examples” (Bioorg Med Chem Lett, 2020) come the findings set out here.

Sequence of S-adenosylmethionine synthase isoform type-2 (P31153 whole entry, canonical isoform): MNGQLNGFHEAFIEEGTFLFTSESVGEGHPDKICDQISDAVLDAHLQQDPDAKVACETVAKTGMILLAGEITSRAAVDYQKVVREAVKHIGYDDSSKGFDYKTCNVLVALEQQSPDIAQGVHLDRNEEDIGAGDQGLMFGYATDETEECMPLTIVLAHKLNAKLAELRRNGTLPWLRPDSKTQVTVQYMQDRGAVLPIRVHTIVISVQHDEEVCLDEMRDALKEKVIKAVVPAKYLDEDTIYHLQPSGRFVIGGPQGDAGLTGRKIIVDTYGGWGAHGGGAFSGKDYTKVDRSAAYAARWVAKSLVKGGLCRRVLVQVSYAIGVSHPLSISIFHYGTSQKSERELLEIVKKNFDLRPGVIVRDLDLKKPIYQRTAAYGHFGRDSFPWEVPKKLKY

Usually IC50 stands for the concentration at which inhibition is half-maximal. `COc1ccc2c(=O)c(C)c(-c3ccnc(-c4ccc(OC(F)(F)F)cc4)c3)[nH]c2c1`: the IC50 is 283 nM.
